Assay results taken from patent US7419669B2, “Peptide epitopes common to antigens of the same multigene family” (Institut Gustave Roussy, priority 2002, dated 2008).
Where no end group is shown, it is not given here.

Key:
[1] = target: T1, HLA-A*0201 (Homo sapiens, UniProt P04439, D140Y/D185E/D98H/E176V/E277Q/G131W/G231S/I119V/I121R/I166T/I218V/L300P/L318F/N151K/N90K/P208A/P217A/Q86G/Q94H/R138H/R169H/T345S); assay: Relative affinity (RA) of peptides for HLA-A*0201 on T2 cells, flow cytometry with BB7.2; assay type: binding; conditions: for affinity for HLA-A*0201 (in words): low affinity = RA>5 and DC50<2 hours; for RA (relative affinity for HLA-A*0201): ratio of peptide concentration to reference peptide (HIVpol 589) concentration inducing 20% of fluorescence obtained with 100 μM reference, T2 cells, lower RA = stronger binding
T1 construct: prevent the expression at their surface of newly synthesized HLA-A*0201 molecules; endogenous in cells; host or cells: human T2 cells (TAP-deficient)
Experimental: The affinity of the selected peptides for HLA-A*0201 was defined by two parameters: the relative affinity (RA); which reflects the ability of the peptides to bind to HLA-A*0201, and the rate of dissociation of the HLA-A*0201/peptide complexes (DC50), which reflects their stability. The peptides with high affinity (RA<5 and DC50>2 hours) are potentially immunogenic, unlike the peptides with low affinity (RA>5 and DC50<2 hours).
Human T2 cells (FIRAT et al., Eur. J. Immunol., 29, 3112, 1999) (3×10^5 cells/ml), which are deficient in TAP transporters, are incubated at 37° C. for 16 hours with various concentrations (100 μM, 10 μM, 1 μM, 0.1 μM) of each test peptide in serum-free RPMI 1640 medium supplemented with 100 ng/ml of human β2-microglobulin. Next, they are washed twice and labeled with the monoclonal antibody BB7.2 (PARHAM et al., Hum. Immunol., 3, 4, 277-299, 1981) which is specific for the HLA-A*0201 molecule, and then with a goat anti-mouse Ig antibody coupled to fluorescein isothiocyanate (FITC).
The cells are then analyzed by flow cytometry. For each concentration of peptide, the specific HLA-A*0201 fluorescence is calculated as a percentage of the fluorescence obtained with 100 μM of a reference peptide (HIVpol 589; […] (SEQ ID No: 1)). The relative affinity (RA) is defined as the ratio of the concentration of each peptide that induces 20% of the fluorescence obtained with 100 μM of the reference peptide, to the concentration of the reference peptide that induces 20% of the fluorescence obtained with 100 μM of said reference peptide. The lower the relative affinity, the stronger the binding of the peptide to HLA-A*0201. The mean RA for each peptide is determined from at least three independent experiments. In all the experiments, 20% of the maximum fluorescence was obtained for 1 to 3 μM of the reference peptide.
The relative affinity (RA) of the selected variant peptides for HLA-A*0201 was measured as described in example 1.

[2] = test system: RMAS-HHD cells; assay: Intracellular IFNγ production of CTL line 1R5 with peptide-loaded RMAS-HHD cells; assay type: cell-based, murine; conditions: for response of CD8+ cells of CTL line 1R5 to RMAS-HHD cells loaded with the peptide: intracellular IFNγ production
Experimental: The response of the cells of the CTL line 1R5 with respect to the RMAS-HHD cells loaded with the various peptides was also evaluated by assaying the intracellular IFNγ production.
For this, the cells of the CTL line 1R5 are incubated in the presence of RMAS-HHD cells loaded with the variant peptide p911Y1V9, the native peptides HER1 911, HER2,3 911 or HER4 911, or an irrelevant peptide, and in the presence of 20 μg/ml of Brefeldine-A (Sigma). After 6 hours, the cells are washed, labeled with an anti-CD8 antibody conjugated to r-phycoerythrin, and incubated in PBS for 25 min at 4° C. They are then again washed, before being fixed with a 4% paraformaldehyde solution. The cells are then permeabilized with saponin (Sigma) at 0.2% in PBS, and labeled with an anti-IFNγ monoclonal antibody conjugated to allophycocyanin (Pharmingen).
(§1) The cells are then analyzed by flow cytometry (FACSCalibur™ (Becton Dickinson) and CellQuest™ software).

[3] = test system: RMAS-HHD target cells; assay: Cytotoxicity assay with CTL lines 1R5 and 2R5 (HHD mice immunized with p911Y1V9) on peptide-loaded RMAS-HHD target cells; assay type: cell-based, murine; conditions: for CTL response (specific lysis) to RMAS-HHD cells loaded with the peptide: CTL lines 1R5 and 2R5 induced with p911Y1V9, 10 μM peptide
Experimental: Two CTL lines, called 1R5 and 2R5, were established from the spleen cells of HHD mice immunized with the variant peptide p911Y1V9, according to the same protocol as that described in example 1.
Cytotoxicity assays were carried out as described in example 2. For this, RMAS-HHD target cells loaded with 10 μM of the test peptides (variant or native peptides) were incubated in the presence of cells of the two CTL lines 1R5 and 2R5.
The percentage specific lysis values observed in the presence of the 1R5 (□) and 2R5 (▪) lines and for the various peptides tested are given in FIG. 5.

[4] = test system: CD8+ cells from normal donors; assay: Induction of specific human CTLs in vitro from PBMCs of normal donors with p248V9, intracellular IFNγ production; assay type: cell-based; conditions: intracellular IFNγ production
Experimental: The ability of p248V9 to induce CTLs in vitro using peripheral blood mononuclear cells (PBMCs) from normal donors was tested as follows.
The PBMCs are obtained, from blood samples taken by leukocytapheresis on normal donors, after centrifugation at 2000 rpm for 20 min on a Ficoll/Hypaque (Amersham) gradient. After 3 washes in 0.9% NaCl, they are resuspended in complete medium (RPMI 1640 supplemented with 10% of heat-inactivated human AB serum, 40 μg/ml of gentamicin (Panpharma) and […] of L-glutamine (Gibco)), and incubated at 37° C. for 2 hours. After incubation, the non-adherent cells are removed. The adherent cells are differentiated into dendritic cells by culturing in a Teflon bag in a proportion of 3×10^6 cells/ml in complete medium supplemented with 500 IU/ml of GM-CSF (R & D Systems) and 500 IU/ml of IL-4 (R & D Systems). On the seventh day, maturing agents (100 ng/ml of polyI:C and 2 μg/ml of anti-CD40 antibody) are added to the culture. After 24 hours, the mature dendritic cells are loaded with the peptide p248V9 by incubation for 2 hours with 10 μM of peptide in the presence of 5 μg/ml of β2-microglobulin, and then irradiated at 3500 rads; they are then washed in order to remove the free peptide. CD8+ cells are isolated from the non-adherent cells by means of microbeads coupled to an anti-CD8 antibody (Miltenyi Biotec).
2×10^5 CD8+ cells are stimulated with 2×10^4 dendritic cells loaded with the peptide, in complete medium supplemented with 1000 IU/ml of IL-6 and 5 IU/ml of IL-12 in a final volume of 100 μl/well in a 96-well plate. From the seventh day, the cultures are stimulated in vitro each week with the dendritic cells loaded with the peptide, in the presence of 20 IU/ml of IL-2 and 10 ng/ml of IL-7. After the third restimulation, the CD8+ cells are collected and stimulated with EBV-transformed HLA-A*0201 allogenic B cells, in a 1/2 ratio, in the presence of 10 μM of peptide, for 16 hours.
The IFNγ-producing CD8+ cells are purified using a commercial kit (IFNγ secretion assay-cell enrichment and detection kit, Miltenyi Biotech). The cells thus purified are cultured for one week in complete medium supplemented with 20 IU/ml of IL-2 and 10 ng/ml of IL-7.
The response of these CD8+ cells to T2 cells loaded with one of the peptides p248V9, p248G9 or p248D9, or with a irrelevant peptide (HIVgag76), or to HLA-A*0201+MAGE-A+ tumor cells (M44 and M113) or HLA-A*0201+MAGE-A^− tumor cells (Caco-2), is evaluated by assaying the intracellular IFNγ production.
The CD8+ cells are incubated with the cells of the tumor line tested, in the presence of 20 μg/ml of Brefeldine-A (Sigma). […]
as §1

[5] = test system: HHD transgenic mice; assay: Induction of specific CTLs in HHD transgenic mice by immunization with variant MAGE-A peptides; 51Cr cytotoxicity on peptide-loaded RMAS-HHD targets; assay type: in vivo; conditions: for recognition of RMAS-HHD targets loaded with the native peptide by CTLs induced with the corresponding variant: native peptide loaded on targets
Experimental: The immunogenicity of the variant peptides p174Y1V10, p262L2 and p248V9 was evaluated by generation of CTLs on HHD transgenic mice (PASCOLO et al., J. Exp. Med., 185, 2043, 1997). These mice are β2m−/−, D^b−/− and express an HLA-A*0201 single chain made up of the α1 and α2 domains of HLA-A*0201 and the α3 and intracellular domains of D^b, linked via its N-terminal to the C-terminal of human β2-microglobulin, via a peptide of 15 amino acids.
The HHD mice are given a subcutaneous injection at the base of the tail with 100 μg of each variant peptide to be tested, emulsified in Freund's incomplete adjuvant, in the presence of 140 μg of a T-helper epitope derived from the HBV “core” antigen (128-140, sequence […]).
After 11 days, spleen cells taken from the mice (5×10^7 cells in 10 ml) are stimulated in vitro with the test peptide (10 μM). On the 6th day of culture, the populations which respond are tested in order to determine a specific cytotoxicity. The cells which respond are restimulated in vitro at one-week intervals with 2×10^7 irradiated (3000 rads) HHD spleen cells and 1 to 0.1 μM of peptide in the presence of 50 IU/ml of recombinant IL2 (Proleukin, Chiron Corp).
Cytotoxicity assays are carried out 6 days after the final stimulation.
RMAS-HHD cells are used as targets to study the cytotoxicity. The cells are obtained by transfection of murine RMAS cells with the HHD construct as described by PASCOLO et al. (J. Exp. Med., 185, 2043, 1997).
These target cells are labeled with 100 μCi of ^51Cr for 90 minutes, and then washed three times and plated out in round-bottomed 96-well plates (3×10^3 cells/well in 100 μl of RPMI 1640+3% of fetal calf serum). They are loaded with various concentrations of test peptide (variant, native peptide, or irrelevant control peptide), at 37° C. for 90 minutes.
Next, 100 μl of the effector cells (effector cell/target cell ratio=40/1) are added to the wells and the plates are incubated at 37° C. for 4 hours. After incubation, 100 μl of supernatant are collected and the radioactivity is measured in a γ-counter.
The percentage of specific lysis is calculated by means of the formula: [(experimental ^51Cr release−spontaneous ^51Cr release)/(maximum ^51Cr release−spontaneous ^51Cr release)]×100. In all the experiments, the spontaneous release is less than 20% of the maximum release induced with 3N HCl.

CLGLSYDGLL [p174] was tested, and the “affinity for HLA-A*0201 (in words)” value [1] was “low affinity”.
For “TIWELMTFGG (listed as Homo sapiens) [HER4 911]”, the “response of CD8+ cells of CTL line 1R5 to RMAS-HHD cells loaded with the peptide” value (“response of CD8+ cells of CTL line 1R5” for short) [2] was “response of the CD8+ cells of the CTL line 1R5” and the “CTL response (specific lysis) to RMAS-HHD cells loaded with the peptide” value (“CTL response (specific lysis)” below) [3] was “induce a CTL response”.
“TVWELMTFGA (listed as Homo sapiens) [HER2,3 911]” was tested, and the “response of CD8+ cells of CTL line 1R5” value [2] was “response of the CD8+ cells of the CTL line 1R5” and the “CTL response (specific lysis)” value [3] was “induce a CTL response”.
“TVWELMTFGS (listed as Homo sapiens) [HER1 911]” was tested, and the “response of CD8+ cells of CTL line 1R5” value [2] was “response of the CD8+ cells of the CTL line 1R5” and the “CTL response (specific lysis)” value [3] was “induce a CTL response”.
For “YICTIDVYMV (not fully specified) [p945Y1V9]”, the “RA (relative affinity for HLA-A*0201)” value [1] was over 100.
In the case of YLAARNVLV (not fully specified) [p845Y], the “RA (relative affinity for HLA-A*0201)” value [1] is reported as over 100.
With “YLEYRQVPD (listed as Homo sapiens) [p248D9]” the “response of p248V9-induced human CD8+ cells to T2 cells loaded with the peptide” value [4] was “a response of the CD8+ cells”, the “affinity for HLA-A*0201 (in words)” value [1] was “low affinity” and the “recognition of RMAS-HHD targets loaded with the native peptide by CTLs induced with the corresponding variant” value [5] was “also against the two native peptides”.
“YLEYRQVPG (listed as Homo sapiens) [p248G9]” was tested, and the “response of p248V9-induced human CD8+ cells to T2 cells loaded with the peptide” value [4] was “a response of the CD8+ cells”, the “affinity for HLA-A*0201 (in words)” value [1] was “low affinity” and the “recognition of RMAS-HHD targets loaded with the native peptide by CTLs induced with the corresponding variant” value [5] was “also against the two native peptides”.
In the case of “YLFLWGPRA (not fully specified) [p262L2]”, the “CTL response generated by immunization with the variant peptide” value ([5]; HHD mice, 100 μg s.c. in Freund's incomplete adjuvant, RMAS-HHD targets, effector/target 40/1) is reported as “induces CTLs capable of recognizing this peptide, but not the native p262 peptide”.
For YLLEKGERL (not fully specified) [p933Y], the “RA (relative affinity for HLA-A*0201)” value [1] was over 100.
“YVKVLGSGV (not fully specified) [p722Y1V9]” was tested, and the “RA (relative affinity for HLA-A*0201)” value [1] was over 100.
For “YVWELMTFGV (not fully specified) [p911Y1V9]”, the “CTLs induced by the variant peptide, recognition by IFNγ production” value ([2]; CTL line 1R5) was “induces CTLs capable of recognizing this variant peptide, but also the native peptides from which it is derived”, the “response of CD8+ cells of CTL line 1R5” value [2] was “response of the CD8+ cells of the CTL line 1R5” and the “CTLs generated by the variant peptide, killing of loaded RMAS-HHD target cells” value ([3]; CTL lines 1R5 and 2R5, targets loaded with 10 μM peptide) was “generates CTLs which kill the RMAS-HHD target cells loaded with the variant peptide p911Y1V9, but also with the native peptides HER1 911, HER2,3 911 or HER4 911”. For the same sequence, the “CTL response (specific lysis)” value [3] was “induce a CTL response”.
With YVWSYGVTV (not fully specified) [p904Y] the “RA (relative affinity for HLA-A*0201)” value [1] was over 100.
